Reference: the supplement of paper PMC10307832

Experiments:
Test in all cases: relative viability (nuclei count vs DMSO), 5 days (fraction); higher = more cells survive
[1] = test system: HOP-62
Procedure, shortened: (§1)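 Relative viability was taken as the ratio of nuclei in treated wells to nuclei in vehicle wells. Lung cancer cell lines in 1536-well plates received compounds by pin tool one day after seeding, either one drug alone or a fixed anchor-drug dose plus five library-drug doses (not always all listed) in √10 steps. Nuclei were counted on 4× images after 5 days of treatment, and values are medians of duplicate plates.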

[2] = test system: NCI-H2405
Procedure, shortened: as §1

[3] = test system: NCI-H647
Procedure, shortened: as §1

[4] = test system: 201T
Procedure, shortened: as §1

[5] = test system: LK-2
Procedure, shortened: as §1

[6] = test system: COR-L23
Procedure, shortened: as §1

[7] = test system: NCI-H460
Procedure, shortened: as §1

[8] = test system: EMC-BAC-2
Procedure, shortened: as §1

[9] = test system: EKVX
Procedure, shortened: as §1

[10] = test system: NCI-H1915
Procedure, shortened: as §1

[11] = test system: NCI-H1734
Procedure, shortened: as §1

[12] = test system: SK-MES-1
Procedure, shortened: as §1

[13] = test system: PC-14
Procedure, shortened: as §1

[14] = test system: NCI-H1993
Procedure, shortened: as §1

[15] = test system: A-427
Procedure, shortened: as §1

[16] = test system: BEN
Procedure, shortened: as §1

[17] = test system: HCC-15
Procedure, shortened: as §1

[18] = test system: HCC-78
Procedure, shortened: as §1

[19] = test system: HCC-366
Procedure, shortened: as §1

[20] = test system: COR-L 105
Procedure, shortened: as §1

Structure (SMILES): CN1CCN(CCOc2cc(OC3CCOCC3)c3c(Nc4c(Cl)ccc5c4OCO5)ncnc3c2)CC1 [Saracatinib] + CC1(C)CCC(c2ccc(Cl)cc2)=C(CN2CCN(c3ccc(C(=O)NS(=O)(=O)c4ccc(N[C@H](CCN5CCOCC5)CSc5ccccc5)c(S(=O)(=O)C(F)(F)F)c4)cc3)CC2)C1 [Navitoclax] (partner 0.5 µM)
- relative viability ([1]; first compound 0.02 µM): 1.01
- relative viability ([1]; first compound 0.2 µM): 0.804
- relative viability ([1]; first compound 0.6325 µM): 1.25
- relative viability ([1]; first compound 2 µM): 1.1
- relative viability ([2]; first compound 0.02 µM): 0.816
- relative viability ([2]; first compound 0.2 µM): 0.874
- relative viability ([2]; first compound 0.6325 µM): 0.401
- relative viability ([2]; first compound 2 µM): 0.316
- relative viability ([3]; first compound 0.02 µM): 1.15
- relative viability ([3]; first compound 0.2 µM): 0.959
- relative viability ([3]; first compound 0.6325 µM): 1.18
- relative viability ([3]; first compound 2 µM): 0.764
- relative viability ([4]; first compound 0.02 µM): 1.29
- relative viability ([4]; first compound 0.2 µM): 1.16
- relative viability ([4]; first compound 0.6325 µM): 1.09
- relative viability ([4]; first compound 2 µM): 1.1
- relative viability ([5]; first compound 0.02 µM): 0.795
- relative viability ([5]; first compound 0.2 µM): 0.781
- relative viability ([5]; first compound 0.6325 µM): 0.71
- relative viability ([5]; first compound 2 µM): 0.489
- relative viability ([6]; first compound 0.02 µM): 1.1
- relative viability ([6]; first compound 0.2 µM): 0.966
- relative viability ([6]; first compound 0.6325 µM): 0.923
- relative viability ([6]; first compound 2 µM): 0.933
- relative viability ([7]; first compound 0.02 µM): 1.16
- relative viability ([7]; first compound 0.2 µM): 0.457
- relative viability ([7]; first compound 0.6325 µM): 1.22
- relative viability ([7]; first compound 2 µM): 0.813
- relative viability ([8]; first compound 0.02 µM): 1.15
- relative viability ([8]; first compound 0.2 µM): 1.16
- relative viability ([8]; first compound 0.6325 µM): 1.15
- relative viability ([8]; first compound 2 µM): 0.993
- relative viability ([9]; first compound 0.02 µM): 0.902
- relative viability ([9]; first compound 0.2 µM): 0.88
- relative viability ([9]; first compound 0.6325 µM): 0.903
- relative viability ([9]; first compound 2 µM): 0.357
- relative viability ([10]; first compound 0.02 µM): 0.813
- relative viability ([10]; first compound 0.2 µM): 0.456
- relative viability ([10]; first compound 0.6325 µM): 0.8
- relative viability ([10]; first compound 2 µM): 0.757
- relative viability ([11]; first compound 0.02 µM): 0.854
- relative viability ([11]; first compound 0.6325 µM): 0.767
- relative viability ([11]; first compound 2 µM): 0.697
- relative viability ([12]; first compound 0.02 µM): 1.24
- relative viability ([12]; first compound 0.2 µM): 1.16
- relative viability ([12]; first compound 0.6325 µM): 1.21
- relative viability ([12]; first compound 2 µM): 0.727
- relative viability ([13]; first compound 0.02 µM): 1.01
- relative viability ([13]; first compound 0.2 µM): 1.01
- relative viability ([13]; first compound 0.6325 µM): 0.417
- relative viability ([13]; first compound 2 µM): 0.198
- relative viability ([14]; first compound 0.02 µM): 0.848
- relative viability ([14]; first compound 0.2 µM): 0.78
- relative viability ([14]; first compound 2 µM): 0.769
- relative viability ([15]; first compound 0.02 µM): 0.999
- relative viability ([15]; first compound 0.2 µM): 0.854
- relative viability ([15]; first compound 0.6325 µM): 1
- relative viability ([15]; first compound 2 µM): 0.918
- relative viability ([16]; first compound 0.02 µM): 0.0867
- relative viability ([16]; first compound 0.2 µM): 0.0774
- relative viability ([16]; first compound 0.6325 µM): 0.0714
- relative viability ([16]; first compound 2 µM): 0.0584
- relative viability ([17]; first compound 0.02 µM): 0.655
- relative viability ([17]; first compound 0.2 µM): 0.545
- relative viability ([17]; first compound 0.6325 µM): 0.65
- relative viability ([17]; first compound 2 µM): 0.558
- relative viability ([18]; first compound 0.02 µM): 0.733
- relative viability ([18]; first compound 0.2 µM): 0.779
- relative viability ([18]; first compound 0.6325 µM): 1.08
- relative viability ([18]; first compound 2 µM): 0.875
- relative viability ([19]; first compound 0.02 µM): 1.03
- relative viability ([19]; first compound 0.6325 µM): 1.08
- relative viability ([19]; first compound 2 µM): 0.7
- relative viability ([20]; first compound 0.02 µM): 0.795
- relative viability ([20]; first compound 0.2 µM): 0.764
- relative viability ([20]; first compound 0.6325 µM): 0.578
- relative viability ([20]; first compound 2 µM): 0.474
